The compounds below were run against interaction between GST-MAGEA11 MHD and FAM-PCF11_4 peptide (MAGE-A11:PCF11) (Homo sapiens (Human), UniProt P43364) (assay: TR-FRET dose response competition assay for disruption of MAGE-A11:PCF11 binding). Details: Dose response TR-FRET screening of nine scaffold groups against MAGE-A11:PCF11; read-out: consensus IC50.
Sequence of interaction between GST-MAGEA11 MHD and FAM-PCF11_4 peptide (MAGE-A11:PCF11) (P43364 218-429): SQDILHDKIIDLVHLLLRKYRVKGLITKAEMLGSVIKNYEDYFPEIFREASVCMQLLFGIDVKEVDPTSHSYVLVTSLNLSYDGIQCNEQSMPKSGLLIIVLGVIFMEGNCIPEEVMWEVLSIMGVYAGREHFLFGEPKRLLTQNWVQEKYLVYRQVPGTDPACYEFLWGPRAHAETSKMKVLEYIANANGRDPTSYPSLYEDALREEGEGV
Method in brief: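 Competition TR-FRET at room temperature in 50 mM Tris pH 7.5, 20 mM MgCl2, 0.1 mg/ml BSA, 1 mM DTT: final 5 nM GST-MAGEA11 MHD, 5 nM Tb-anti-GST, 200 nM FAM-PCF11_4, 90 min. Ratio 520/490 nm converted to % inhibition; IC50 from sigmoidal fit.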
Compound `COc1ccc(F)cc1CNCCCNc1ccnc2cc(Cc3ccc(C#N)cc3)ccc12` [SJ000311305-1] has an IC50 of 69.9 µM.
With `CCOc1cc(C2Nc3ccccc3C(=O)N2Cc2ccccc2)ccc1O` (stereo not drawn) [SJ000288432-1] the IC50 was 69.9 µM.
With `COc1cccc(CNCCCNc2ccnc3cc(-c4cccc5ccccc45)ccc23)c1O` [SJ000311275-1] the IC50 was 16 µM.
In the case of `CN(C)c1cccc(Oc2ccc3c(NCCCNCc4cccc5c4OCO5)ccnc3c2)c1` [SJ000311232-1], the IC50 is reported as 69.9 µM.
For `COc1ccc(Oc2ccc3c(NCCCNCc4cccc(OC)c4O)ccnc3c2)cc1` [SJ000311219-1], the IC50 was 29 µM.
`CCOc1ccc(-c2nc(S(=O)(=O)c3ccccc3)c(N3CCOCC3)o2)cc1` [SJ000198209-1] showed an IC50 of 69.9 µM.
Work on `FC(F)(F)Oc1cccc(CNCCCNc2ccnc3cc(C(F)(F)F)ccc23)c1` [SJ000521045-2] yielded an IC50 of 69.9 µM.
Work on `CCc1ccc(CNCCCNc2ccnc3cc(Cl)ccc23)cc1` [SJ000521039-1] yielded an IC50 of 69.9 µM.
In the case of `Cc1ccc(S(=O)(=O)c2nc(-c3cccc(C)c3)oc2N2CCOCC2)cc1` [SJ000027480-1], the IC50 is reported as 11.2 µM.
With `CCC(CC)c1ccc2c(NCCCNCc3cc(F)ccc3OC)ccnc2c1` [SJ000311269-1] the IC50 was 43 µM.
Compound `O=C1c2ccccc2NC(c2ccc(F)c(Br)c2)N1CCCN1CCOCC1` (stereo not drawn) [SJ000803764-1] has an IC50 of 68 µM.
In the case of `CCOP(=O)(OCC)c1nc(-c2ccc([N+](=O)[O-])cc2)oc1N1CCOCC1` [SJ000092459-1], the IC50 is reported as 69.9 µM.
`COCCn1c(-c2ccc(F)cc2)nc2c1c(=O)[nH]c(=O)n2CC(C)C` [SJ000422648-1] showed an IC50 of 69.9 µM.
In the case of `CCCn1c(=O)[nH]c(=O)c2c1nc(-c1ccc(Cl)cc1)n2CCOC` [SJ000424475-1], the IC50 is reported as 69.9 µM.
With `COc1ccc(Cl)cc1Nc1nc(N)c2ccccc2n1` [SJ000200999-1] the IC50 was 69.9 µM.
`CN(C)c1ccc(-c2nc3c(c(=O)[nH]c(=O)n3Cc3ccccc3)n2C)cc1` [SJ000396262-1] showed an IC50 of 69.9 µM.
For `COc1ccc(C2Nc3ccccc3C(=O)N2Cc2ccc(F)cc2)cc1` (stereo not drawn) [SJ000510742-1], the IC50 was 69.9 µM.
Work on `CCCN1C(=O)c2ccccc2NC1c1cc(OC)c(OC)c(OC)c1` (stereo not drawn) [SJ000551165-1] yielded an IC50 of 69.9 µM.
`CN(C)C(=O)Cn1cnc2cc(-c3ccccc3)sc2c1=O` [SJ000425603-1] showed an IC50 of 69.9 µM.
In the case of `CN(Cc1ccno1)C(=O)c1ccc2c(c1)c1ccccc1n2C` [SJ000516830-1], the IC50 is reported as 69.9 µM.
`COc1ccc(-c2cc3ncn(CC(=O)NCc4ccccc4Cl)c(=O)c3s2)cc1` [SJ000449845-1] gave an IC50 of 69.9 µM.
`COc1ccc(F)c(CNCCCNc2ccnc3cc(C(F)(F)F)ccc23)c1` [SJ000521058-1] showed an IC50 of 69.9 µM.
For `Cn1c(-c2ccc(Cl)cc2)nc2c1c(=O)[nH]c(=O)n2Cc1ccccc1` [SJ000384618-1], the IC50 was 69.9 µM.
For `COc1cccc(CNCCCNc2ccnc3cc(Cc4c(Cl)cccc4Cl)ccc23)c1O` [SJ000311315-1], the IC50 was 13.8 µM.
Compound `COc1cccc(Oc2ccc3c(NCCCNCc4cccc(OC)c4O)ccnc3c2)c1` [SJ000311215-1] has an IC50 of 69.9 µM.
For `COc1ccc(F)cc1CNCCCNc1ccnc2cc(-c3ccc(C(C)(C)C)cc3)ccc12` [SJ000311289-1], the IC50 was 4.62 µM.
Compound `O=C1OCC(c2ccc(OC(F)F)cc2)=C1c1ccc([N+](=O)[O-])cc1` [SJ000368145-1] has an IC50 of 40.8 µM.
Work on `CCn1c2ccccc2c2cc(CN3CCc4nnc(CNS(=O)(=O)C(C)C)n4CC3)ccc21` [SJ000307753-1] yielded an IC50 of 69.9 µM.
For `COc1cccc(CNCCCNc2ccnc3cc(C4CCCCC4)ccc23)c1O` [SJ000311263-1], the IC50 was 32.4 µM.
Compound `COc1ccc(-c2ccc3c(NCCCNCc4cccc(OC)c4O)ccnc3c2)cc1` [SJ000311295-1] has an IC50 of 69.9 µM.
In the case of `Cc1ccc(S(=O)(=O)c2nc(-c3ccccc3C)oc2N2CC(C)OC(C)C2)cc1` (stereo not drawn) [SJ000329041-1], the IC50 is reported as 11.8 µM.
Work on `CC(=O)N(C1=C(Cl)C(=O)c2ccccc2C1=O)c1cccc(O)c1` [SJ000046178-1] yielded an IC50 of 69.9 µM.
`CCOc1ccc(NC2=C(Cl)C(=O)c3ccccc3C2=O)cc1` [SJ000122936-1] showed an IC50 of 69.9 µM.
In the case of `O=C(Cn1cnc2cc(-c3ccccc3)sc2c1=O)NCc1ccccc1Cl` [SJ000455850-1], the IC50 is reported as 69.9 µM.
For `COc1ccc(F)cc1CNCCCNc1ccnc2cc(Oc3cccc(N(C)C)c3)ccc12` [SJ000311233-1], the IC50 was 5.63 µM.
Work on `CC1CN(c2oc(-c3ccc(Cl)cc3)nc2C#N)CC(C)O1` (stereo not drawn) [SJ000478208-1] yielded an IC50 of 69.9 µM.
In the case of `CCCn1c(-c2ccc(F)cc2)nc2c1c(=O)[nH]c(=O)n2Cc1ccccc1` [SJ000456724-1], the IC50 is reported as 69.9 µM.
For `COc1ccc(F)cc1CNCCCNc1ccnc2cc(-c3ccc(F)cc3)ccc12` [SJ000311241-1], the IC50 was 38.9 µM.
In the case of `CCCN1C(=O)c2ccccc2NC1c1ccc(OC)cc1` (stereo not drawn) [SJ000026518-2], the IC50 is reported as 69.9 µM.
Compound `Fc1cccc(CNCCCNc2ccnc3cc(Cl)ccc23)c1` [SJ000523061-1] has an IC50 of 69.9 µM.
`CCCN1C(=O)c2ccccc2NC1c1ccc2c(c1)OCO2` (stereo not drawn) [SJ000288667-1] gave an IC50 of 69.9 µM.
With `COc1ccccc1CNC(=O)Cn1cnc2cc(-c3ccccc3)sc2c1=O` [SJ000452125-1] the IC50 was 69.9 µM.
In the case of `COc1cccc(CNCCCNc2ccnc3cc(Oc4ccc(Cl)cc4)ccc23)c1O` [SJ000311227-1], the IC50 is reported as 20.7 µM.
`COc1ccc(C2Nc3ccccc3C(=O)N2Cc2ccccc2)cc1Cn1nc(C)c(Cl)c1C` (stereo not drawn) [SJ000288637-1] was tested, and the IC50 was 69.9 µM.
Compound `CCCCn1c(=O)[nH]c(=O)c2c1nc(-c1ccc(C(F)(F)F)cc1)n2C` [SJ000378916-1] has an IC50 of 69.9 µM.

Same assay, conditions: Table 5, dose response TR-FRET screening of 59 quinoline compounds against MAGE-A11:PCF11; read-out: TR-FRET IC50
With `CCCN(CCCNc1c2ccc(Cl)cc2nc2ccc(OC)cc12)Cc1c(Cl)ccc(Cl)c1Cl` [SJ000523021-1] the IC50 was greater than 70 µM.
For `CCCN(CCCNc1ccnc2cc(Cl)ccc12)Cc1ccc(CC)cc1` [SJ000523001-1], the IC50 was greater than 70 µM.
Work on `Clc1cccc(-c2ccc(CNCCCNc3ccnc4cc(Cl)ccc34)o2)c1` [SJ000523069-1] yielded an IC50 greater than 70 µM.
Compound `CCCCCCN(CCC)CCCNc1ccnc2cc(C(F)(F)F)ccc12` [SJ000523083-1] has an IC50 greater than 70 µM.
Compound `CC(C)(C)CCN(CCCCNc1ccnc2cc(Cl)ccc12)Cc1ccccc1` [SJ000357537-2] has an IC50 greater than 70 µM.
`CCCN(CCCNc1ccnc2cc(C(F)(F)F)ccc12)Cc1ccc2[nH]ccc2c1` [SJ000575171-1] was tested, and the IC50 was 33.2 µM.
With `Clc1ccc2c(NCCCN(Cc3ccccc3)Cc3ccc4[nH]ccc4c3)ccnc2c1` [SJ000520430-1] the IC50 was 41.7 µM.

Same assay, conditions: Table 8, representative compounds; read-out: TR-FRET IC50
For `COc1cccc(CNCCCNc2ccnc3cc(Cc4ccccc4)ccc23)c1O` [SJ000311307], the IC50 was 69.9 µM.
In the case of `c1ccc(CCc2ccc3c(NCCCNCc4cccc5c4OCO5)ccnc3c2)cc1` [SJ000311257], the IC50 is reported as 62.3 µM.
`FC(F)(F)Oc1ccc(CNCCCNc2ccnc3cc(C(F)(F)F)ccc23)cc1` [SJ000521050] showed an IC50 of 69.9 µM.
With `COc1ccccc1Oc1ccc2c(NCCCNCc3cccc4c3OCO4)ccnc2c1` [SJ000311212] the IC50 was 69.9 µM.
`Oc1ccc(Br)cc1CNCCCNc1ccnc2cc(Cl)ccc12` [SJ000311186] showed an IC50 of 69.9 µM.
Work on `CCC(CC)c1ccc2c(NCCCNCc3cccc(OC)c3O)ccnc2c1` [SJ000311267] yielded an IC50 of 9.95 µM.
Compound `COc1cccc(CNCCCNc2ccnc3cc(Oc4ccc(C(C)(C)C)cc4)ccc23)c1O` [SJ000311235] has an IC50 of 7.65 µM.
Work on `Fc1cccc(CNCCCNc2ccnc3cc(Cl)ccc23)c1` [SJ000523061] yielded an IC50 of 69.9 µM.
`COc1cccc(CNCCCNc2ccnc3cc(Oc4ccc(F)cc4)ccc23)c1O` [SJ000311223] gave an IC50 of 61.9 µM.
`COc1c2ccoc2nc2c(OC)c(OCC(O)C(C)O)ccc12` (stereo not drawn) [SJ000121402] showed an IC50 greater than 69.9 µM.
For `FC(F)(F)c1ccc2c(NCCCNCc3ccccc3)ccnc2c1` [SJ000361107], the IC50 was 69.9 µM.

Reference: patent US20240246941A1, “SUBSTITUTED 4-(3-AMINOPROP-1-YL)AMINOQUINOLINE ANALOGS AS MODULATORS OF MELANOMA-ASSOCIATED ANTIGEN 11 UBIQUITIN LIGASE” (ST. JUDE CHILDREN'S RESEARCH HOSPITAL, INC., priority 2020, published 2024)
